# Measured values published in publication PMC8709997, “Long-term memory T cells as preventive anticancer immunity elicited by TuA-derived heteroclitic peptides” (Journal of Translational Medicine, 2021).
# Values joined by “and” are separate entries in the source; they are usually repeats but may differ in a detail not shown here. Identical values can stand only once.
# Key:
# [1] = system: TC-1 tumor cells expressing HPV16 E7 protein; experiment: Preventive immunization and TC1 tumor challenge; format: in vivo, C57BL/6 mice
# Method: (§1) C57BL/6 (H-2-Db) female mice, 8 weeks old, were purchased from Harlan (Udine, Italy). All animals were housed at the Animal Facility of the Istituto Nazionale Tumori “Pascale” (Naples, Italy). Mice were housed in number of 2–3 per cage and maintained in a conventional facility on a 12 h light:12 h dark cycle (lights on at 7:00 a.m.) in a temperature-controlled room (22 ± 2 °C) and with food and water ad libitum at all times. The experimental protocols were in compliance with the European Communities Council directive (86/609/EEC).
# (§2) Mouse melanoma B16F10 (ATCC, CRL-6323) cells were cultured in DMEM medium supplemented with 10% heat inactivated FBS, 100 U/ml penicillin and […] streptomycin (Invitrogen, Carlsbad, CA) at 37 °C with 5% CO2. Cells were tested for mycoplasma before inoculation in mice (ATCC®, 30-1012 K™). Mouse lung TC-1 tumor cells expressing HPV16 E7 protein (ATCC, CRL-2493), were cultured in RPMI medium supplemented with 10% heat inactivated FBS, 100 U/ml penicillin and […] streptomycin (Invitrogen, Carlsbad, CA), HEPES 10 mM, MEM 0.1 mM and Na Piruvate 1 mM at 37 °C with 5% CO2.
# (§3) B16F10 and TC1 cells were harvested in exponential growth phase by trypsinization and washed twice with ice-cold PBS. C57BL/6 mice were subcutaneously injected with 5 × 10^4 and 1 × 10^5 cells/mouse of B16F10 or TC1 respectively on the right back flank. A cell aliquot (200μL) containing 1 × 10^6 cells was loaded in 21G syringes for intra-splenic injection. The tumor size was measured and documented every two days with a caliper, starting on day 7, and calculated using the formula (AxB^2)/2 (A as the largest and B is the smallest diameter of tumor). Tumor growth was documented as mean tumor size with standard error. To record the survival of the tumor-bearing mice, either natural death or a tumor diameter greater than 1500 mm^3 leading to death was counted as death.
# (§4) Cyclophosphamide (CTX) (Endoxan®, Baxter) (10 mg/Kg) and Paclitaxel (PTX) (Taxol®, BMS) (5 mg/Kg) diluted with phosphate-buffered saline (PBS) were administered via intraperitoneal injection (i.p.). The dose was extrapolated to human equivalent dose (HED). Metronomic Chemotherapy was weekly administered one day before the vaccine administration until the end of the experiment. An anti-mouse PD-1 MAb (BioXCell, West Lebanon, NH USA) was used as checkpoint inhibitor (CI) and administered via intraperitoneal injection (i.p.) at a dose of 100 μg.
# Preventive experimental setting was performed as follow: C57BL/6 mice were immunized once a week for 4 weeks by subcutaneous administration (s.c.) with WT 100ug or a mix of equimolar ratio of heteroclitic peptides (100 ug tot) formulated in 50ug PolyI:C. At the end of the immunization protocol, a group of animals were implanted with of B16F10 or TC1 cell lines (short-term memory group). In parallel, a second group was left for 2 months without any further treatment before implantation of the same number of cells (long-term memory group). Immunizations were performed in combination with metronomic chemotherapy (MCT) and CI [24–26]. One group was treated only with MCT and CI (MCT + CI group). Control mice were treated with endotoxin-free phosphate-buffered saline (PBS). At the time of sacrifice, whole blood was collected by puncture of the sinus retro-orbital vein prior analgesia with oxybuprocaine chlorhydrate (Fig. 1).
# Animals were immunized in a preventative setting with either the wt or the heteroclitic E7 and Trp2 peptides. At the end of the full vaccination protocol, animals were challenged with 5 × 10^5 TC1 or 1 × 10^4 B16 tumor cells, respectively.
# In order to assess the anti-tumor efficacy of the long-term memory induced by the vaccination, animals were left free of active immunization for 2 months. Animals were then challenged with 5 × 10^5 TC1 or 1 × 10^4 B16 tumor cells, respectively. […] Similarly, in the TC1 model, the long-term immunity was unable to control tumor growth as for the short-term immune response. […]
# [2] = biological target: H-2 Db molecule (Mus musculus, UniProt P01899); experiment: Peptide binding to H-2 Db on TAP-deficient RMA-S cells (flow cytometry); format: cell-based, murine; conditions: RMA-S cells loaded with sub-optimal 1 μM peptide, mean fluorescence intensity
# Method: In order to experimentally confirm the binding and stability of heteroclitic peptides to H-2 Db molecule, the H-2 Db positive RMA-S cell line was loaded with a sub-optimal concentration of 1 μM of peptides.
# Supplementary file 12967_2021_3194_MOESM1_ESM.pptx: Additional file 1: Fig. S1. Predicted affinity of wt and hPep peptides. The affinity to H2-Db were predicted by NetMHCpan 4.1 for wt and heteroclitic peptides. The affinity (Aff) values are expressed in nanomolarity (nM). The selected hPep peptides are indicated for both E7 and Trp2 peptides. Fig. S2. Experimental affinity of wt and hPep peptides. Binding to H2-Db molecule was assessed in TAP-deficient RMA-S cells loaded with the indicated peptides. Mean fluorescence intensity at flow cytometer indicates binding levels of peptides to HLA molecules. Fig. S3. Comparison of short-term and long-term immunization. The curve of tumor growth in the short-term and long-term immunization experiments for the B16 (A) and TC1 (B) is indicated for each individual animal. The Kaplan-Meyer curves for the B16 (C) and TC1 (D) is indicated.
# [3] = system: B16F10 cells; experiment: Preventive immunization and B16 tumor challenge; format: in vivo, C57BL/6 mice
# Method: as §1, §2, §3, §4
# Preventive experimental setting was performed as follow: C57BL/6 mice were immunized once a week for 4 weeks by subcutaneous administration (s.c.) with WT 100ug or a mix of equimolar ratio of heteroclitic peptides (100 ug tot) formulated in 50ug PolyI:C. […]
# [4] = system: IFN-γ secreting T cells; experiment: IFN-γ ELISpot on PBMCs, B16 experimental group; format: cell-based, C57BL/6 mice; conditions: for vaccine-specific IFN-γ immune response: PBMC pools re-stimulated with 10 ug/ml single peptides; for cross-reactivity with the wt: PBMC pools, IFN-γ ELISpot
# Method: (§5) ELISPOT was performed according to BD Biosciences manufacturer instructions (BD ELISPOT Mouse IFN-γ ELISPOT Set cod. 551,083). 5 × 10^5 splenocytes or 2 × 10^5 PBMCs from pooled samples were counted, plated in each well and stimulated with 10ug/ml of single peptides used for the immunization and incubated for 24-26 h. As negative and positive control, peptide diluents PBS and 5ug/ml of phorbol myristate acetate (PMA, Sigma-Aldrich) were used respectively. Plates were read with an AID EliSpot Reader Systems (AID GmbH, Strassberg, Germany). The results were calculated as spot forming counts as a mean of a duplicate count from the specific antigen stimulation minus the negative control.
# (§6) Fig. 5 Immunological evaluation in the short-term immunization. Blood samples were drawn during the experiment from retro-orbital veins and PBMCs were isolated. Interferon-γ (IFN-γ) secreting T cells were evaluated in vitro after O/N re-stimulation with individual peptides. Pool of samples were used for each experimental groups. A and B B16 group; C and D TC1 group. SFU IFN-γ spot forming units
# as §6, with “7” for “5”, “long-term” for “short-term”, “A–C” for “A and B”, “D–F” for “C and D”, “WT NEG animals in the WT group with no sign of tumor growth, HET NEG animals in the Heteroclitic group with no sign of tumor growth” for “SFU IFN-γ spot forming units”
# [5] = system: IFN-γ secreting T cells; experiment: IFN-γ ELISpot on PBMCs, TC1 experimental group; format: cell-based, C57BL/6 mice; conditions: PBMC pools re-stimulated with 10 ug/ml single peptides
# Method: as §5, §6
# Fig. 7 Immunological evaluation in the long-term immunization. Blood samples were drawn during the experiment from retro-orbital veins and PBMCs were isolated. Interferon-γ (IFN-γ) secreting T cells were evaluated in vitro after O/N re-stimulation with individual peptides. […]
# [6] = long-term: TC1 challenge 2 months after vaccination
# H-2 Db molecule, sequence (P01899 whole entry, looked up): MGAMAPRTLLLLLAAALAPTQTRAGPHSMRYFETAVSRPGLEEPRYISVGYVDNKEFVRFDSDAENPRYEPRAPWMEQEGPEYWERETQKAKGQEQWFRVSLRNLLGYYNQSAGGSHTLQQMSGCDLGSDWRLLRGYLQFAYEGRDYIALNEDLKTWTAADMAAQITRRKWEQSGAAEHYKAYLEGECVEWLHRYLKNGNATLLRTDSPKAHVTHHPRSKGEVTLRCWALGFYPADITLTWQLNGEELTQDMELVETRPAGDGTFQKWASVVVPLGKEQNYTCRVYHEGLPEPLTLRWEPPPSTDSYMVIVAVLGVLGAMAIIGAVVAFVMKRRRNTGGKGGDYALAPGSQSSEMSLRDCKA
sequence,measurement,setting,value
RAHYNIVTF [WT-E7],animals still alive (n/N),[1]; [6],3/7
same,tumor-free animals,[1]; [6],1
same,effect on tumor growth,"[1]; long-term: TC1 challenge 2 months after vaccination, compared to controls",significantly delayed
same,animals showing late tumor growth,"[1]; short-term TC1, growth at day 42 and day 51 post-challenge, follow up to day 60, data not shown",two animals
same,survival,[1]; short-term: TC1 challenge at end of vaccination,100%
same,effect on tumor growth,"[1]; short-term: TC1 challenge at end of vaccination, up to day 34",completely inhibit the tumor growth
"RAHYHIVTF [H5-E7, heteroclitic E7 peptide, N5 to H substitution]",binding to the H2-Db molecule relative to wt,[2],complete loss of binding
"RAHANIVTF [A4-E7, heteroclitic E7 peptide, Y4 to A substitution]",binding to the H2-Db molecule relative to wt,[2],equivalent or higher than the wt
SVYDFFVWL [WT-Trp2],survival of animals,"[3]; long-term: B16 challenge 2 months after vaccination, day 27 post-challenge",all animals in the wt group reached the threshold for euthanasia
same,effect on tumor growth,[3]; short-term: B16 challenge at end of vaccination,significantly delay tumor growth
same,animals still alive (n/N),"[3]; short-term: B16 challenge at end of vaccination, 34 days post-challenge, 100 ug peptide s.c. weekly x4 in 50 ug PolyI:C, with MCT and CI",2/6
same,animals still alive / survival,"[3]; short-term: B16 challenge at end of vaccination, 34 days post-challenge, with PolyI:C, MCT and CI",33.3% and 33%
same,vaccine-specific IFN-γ immune response,[4]; long-term setting,strong and comparable
same,vaccine-specific IFN-γ immune response,[4]; short-term setting,strong and comparable
"SVYDNFVWL [N5-Trp2, heteroclitic Trp2 peptide, F5 to N substitution]",binding to the H2-Db molecule relative to wt,[2],much better than the wt
"SVCDFFVWL [C3-Trp2, heteroclitic Trp2 peptide, Y3 to C substitution]",binding to the H2-Db molecule relative to wt,[2],equivalent binding
"SVYAFFVWL [A4-Trp2, heteroclitic Trp2 peptide, D4 to A substitution]",vaccine-specific IFN-γ immune response,[4]; long-term setting,immunodominant
same,cross-reactivity with the wt,[4]; long-term setting,low cross-reactivity
same,vaccine-specific IFN-γ immune response,[4]; short-term setting,immunodominant
same,cross-reactivity with the wt,[4]; short-term setting,low cross-reactivity
same,binding to the H2-Db molecule relative to wt,[2],equivalent binding
"RAIYNIVTF [I3-E7, heteroclitic E7 peptide, H3 to I substitution]",binding to the H2-Db molecule relative to wt,[2],equivalent or higher than the wt
same,vaccine-specific IFN-γ immune response,[5]; long-term setting,immunodominant
same,vaccine-specific IFN-γ immune response,[5]; short-term setting,immunodominant
